Reference: ChEMBL document CHEMBL5584338, “Design, Synthesis, and Biological Evaluation of 5-Amino-4-fluoro-1H-benzo[d]imidazole-6-carboxamide Derivatives as Novel and Potential MEK/RAF Complex Inhibitors Based on the "Clamp" Strategy” (J Med Chem, 2024)
Active and inactive are the calls of the source. The rule behind the calls is not given here.

Columns and labels:
[1] = Antiproliferative activity against rat H9c2 cells incubated for 72 hrs by CCK8 assay; format: toxicity, cell-based
MIA PaCa-2 [2] = experiment: Antiproliferative activity against human MIA PaCa-2 cells harboring KRAS G12C mutant incubated for 72 hrs by CCK8 assay; format: functional, cell-based; settings: MIA PaCa-2, 72 h
[3] = biological target: T1, Dual specificity mitogen-activated protein kinase kinase 1 (Homo sapiens, UniProt Q02750); experiment: Inhibition of MEK1 (unknown origin) assessed as remaining activity at 0.1 uM relative to control
[4] = biological target: T2, Serine/threonine-protein kinase B-raf (Homo sapiens, UniProt P15056); experiment: Inhibition of BRAF (unknown origin) assessed as remaining activity at 0.1 uM relative to control
[5] = system: Mitogen-activated protein kinase 1/3 (ERK1/2) (Homo sapiens); experiment: Inhibition of ERK phosphorylation in human MIA PaCa-2 cells upto 1 uM incubated for 4 hrs by Western blot analysis
[6] = Stability in human liver microsomes assessed as half life at 200 uM preincubated for 5 mins followed by NADPH addition measured upto 60 mins by LC-MS/MS analysis; format: ADME, Microsome; settings: time 65 min
HCT-116 [7] = experiment: Antiproliferative activity against human HCT-116 cells harboring KRAS G13D mutant at 1 uM incubated for 72 hrs by CCK8 assay relative to control; format: functional
[8] = biological target: Dual specificity mitogen-activated protein kinase kinase; MEK1/2 (Homo sapiens) (UniProt P36507+Q02750); experiment: Inhibition of MEK phosphorylation in human MIA PaCa-2 cells upto 1 uM incubated for 4 hrs by Western blot analysis; format: cell-based
[9] = Inhibition of BRAF […] mutant (unknown origin); parameters: species or system Homo sapiens
[10] = biological target: T1, Dual specificity mitogen-activated protein kinase kinase 1; experiment: Inhibition of MEK1 (unknown origin)
HeLa = experiment: Antiproliferative activity against human HeLa cells incubated for 72 hrs by CCK8 assay; format: functional, cell-based
HCT-116 [11] = experiment: Antiproliferative activity against human HCT-116 cells harboring KRAS G13D mutant incubated for 72 hrs by CCK8 assay; format: functional, cell-based; settings: HCT-116, 72 h
[12] = biological target: T2, Serine/threonine-protein kinase B-raf; experiment: Inhibition of BRAF (unknown origin)
[13] = Antiproliferative activity against mouse C26 cells harboring KRAS G12D mutant incubated for 72 hrs by CCK8 assay; format: functional, cell-based, C-26; settings: C26, 72 h
MIA PaCa-2 [14] = experiment: Antiproliferative activity against human MIA PaCa-2 cells harboring KRAS G12C mutant at 0.1 uM incubated for 72 hrs by CCK8 assay relative to control; format: functional

T2 sequence (P15056 whole entry): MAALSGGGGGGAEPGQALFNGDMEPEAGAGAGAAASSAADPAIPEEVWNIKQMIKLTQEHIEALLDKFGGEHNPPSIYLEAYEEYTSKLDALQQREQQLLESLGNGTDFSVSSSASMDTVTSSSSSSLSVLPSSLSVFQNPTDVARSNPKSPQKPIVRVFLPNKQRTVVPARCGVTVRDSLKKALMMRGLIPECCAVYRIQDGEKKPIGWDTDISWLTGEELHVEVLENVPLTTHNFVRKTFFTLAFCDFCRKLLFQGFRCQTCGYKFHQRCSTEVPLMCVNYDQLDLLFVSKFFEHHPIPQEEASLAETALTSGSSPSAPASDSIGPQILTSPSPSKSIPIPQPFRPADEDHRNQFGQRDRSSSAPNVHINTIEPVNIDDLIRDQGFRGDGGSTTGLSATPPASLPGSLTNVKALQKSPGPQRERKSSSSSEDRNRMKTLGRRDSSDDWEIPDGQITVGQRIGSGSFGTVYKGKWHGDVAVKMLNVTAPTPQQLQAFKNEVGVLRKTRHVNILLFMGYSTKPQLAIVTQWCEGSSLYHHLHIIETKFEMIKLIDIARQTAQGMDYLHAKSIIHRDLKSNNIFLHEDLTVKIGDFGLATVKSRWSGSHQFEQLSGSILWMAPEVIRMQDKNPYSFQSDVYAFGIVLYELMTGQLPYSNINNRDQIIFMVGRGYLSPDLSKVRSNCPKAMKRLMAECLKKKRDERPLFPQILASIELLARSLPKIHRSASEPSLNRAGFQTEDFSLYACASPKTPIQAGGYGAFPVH
T1 sequence (Q02750 whole entry): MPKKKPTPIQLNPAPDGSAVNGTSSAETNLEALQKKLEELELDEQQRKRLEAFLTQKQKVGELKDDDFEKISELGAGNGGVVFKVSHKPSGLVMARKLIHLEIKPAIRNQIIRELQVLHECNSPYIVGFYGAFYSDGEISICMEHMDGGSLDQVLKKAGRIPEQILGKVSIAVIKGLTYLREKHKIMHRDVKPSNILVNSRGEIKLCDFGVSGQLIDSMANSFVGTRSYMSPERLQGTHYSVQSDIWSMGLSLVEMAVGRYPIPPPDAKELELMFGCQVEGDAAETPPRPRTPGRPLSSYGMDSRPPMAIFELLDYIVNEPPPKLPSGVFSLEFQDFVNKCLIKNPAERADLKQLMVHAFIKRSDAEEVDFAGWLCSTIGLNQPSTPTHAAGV
Sequence of Dual specificity mitogen-activated protein kinase kinase; MEK1/2 (Homo sapiens) (P36507 whole entry, looked up): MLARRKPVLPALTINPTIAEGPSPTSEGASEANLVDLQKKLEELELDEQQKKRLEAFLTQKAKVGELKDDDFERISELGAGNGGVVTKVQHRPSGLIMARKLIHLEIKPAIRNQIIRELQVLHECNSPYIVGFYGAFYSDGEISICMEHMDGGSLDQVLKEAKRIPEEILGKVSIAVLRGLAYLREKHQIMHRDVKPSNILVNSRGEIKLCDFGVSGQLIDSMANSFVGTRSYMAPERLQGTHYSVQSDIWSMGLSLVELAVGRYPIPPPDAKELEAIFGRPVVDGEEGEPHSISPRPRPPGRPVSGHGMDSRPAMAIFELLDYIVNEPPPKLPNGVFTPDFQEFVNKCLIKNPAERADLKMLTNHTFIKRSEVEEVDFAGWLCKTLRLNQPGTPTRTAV
Sequence of Dual specificity mitogen-activated protein kinase kinase; MEK1/2 (Homo sapiens) (Q02750 whole entry, looked up): as the sequence (Q02750 whole entry) above

Structure (SMILES)	IC50 at 72 h [1] [nM]	IC50 (MIA PaCa-2 [2]) [nM]	Activity [3] [%]	Activity [4] [%]	inhibition [5]	half-life at 200 µM [6] [min]	inhibition at 1 µM (HCT-116 [7]) [%]	inhibition [8]	IC50 [9] [nM]	IC50 [10] [nM]	IC50 (HeLa) [nM]	IC50 (HCT-116 [11]) [nM]	IC50 [12] [nM]	IC50 [13] [nM]	inhibition at 0.1 µM (MIA PaCa-2 [14]) [%]
CNS(=O)(=O)Nc1cccc(Cn2cnc3c(F)c(Nc4ccc(C5CC5)cc4F)c(C(=O)NOCCO)cc32)c1F	> 50000	15	40	-4	Active	37.7	61.2	Active	5	42	> 10000	183	4	56	75.9
CCNS(=O)(=O)Nc1cccc(Cn2cnc3c(F)c(Nc4ccc(C5CC5)cc4F)c(C(=O)NOCCO)cc32)c1	> 50000	23	46	0	Active	47.5	60.4	–	8	74	> 10000	123	7	226	78.8
CNS(=O)(=O)Nc1cccc(Cn2cnc3c(F)c(Nc4ccc(C5CC5)cc4F)c(C(=O)NOCCO)cc32)c1	> 50000	114	58	5	–	–	52.8	–	16	119	> 10000	223	5	152	53.1
